According to patent US7910723B2, “IG20 splice variants therapeutics for cancer” (The Board of Trustees of the University of Illinois, priority 2006, dated 2011):

Columns and labels:
ERK1/2 = assay: TNF-α induced ERK phosphorylation in HeLa cells (immunoblot); format: cell-based; conditions: TNF-α 50 ng/mL, untransduced
Experimental: (A) Time-kinetics of TNF-α induced ERK activation. HeLa cells (3×10^6 per 100 mm dish) were serum starved for 6 h and were either left untreated or treated with TNF-α (50 ng/mL) for different time periods as indicated. Cell lysates were analyzed for phosphorylated ERK or total ERK by immunoblot. (B) Down-modulation of endogenous IG20-SVs in HeLa cells. One microgram of total RNA obtained from HeLa cells 48 h post-transduction was used for reverse-transcription-polymerase chain reaction. The products were separated on a 2% agarose gel. Amplification of all four IG20-SVs was done using F2-B2 primers. […] HeLa cells (3×10^6 per 100 mm dish) were either untransduced or transduced with different lentiviruses expressing SCR, Mid and 13L ShRNA for different time periods as indicated. At the end of each time period, the cells were serum starved for 6 h and were either left untreated or treated with TNF-α (50 ng/mL) for 15 min. Cell lysates were analyzed for phosphorylated ERK or total ERK by immunoblot. The data shown is representative of at least 3 independent experiments.
(A) HeLa cells (3×10^6 per 100 mm dish) were transduced with different lentiviruses expressing SCR, Mid and 16E ShRNA for 48 h. The cells were then serum starved for 6 h and were either left untreated or treated with TNF-α (50 ng/mL) for 15 min. Cell lysates were analyzed for phosphorylated ERK or total ERK by immunoblot. (B) PA-1 cells (5×10^6 per 100 mm dish) were transduced with different lentiviruses expressing SCR, Mid and 13L ShRNA for 48 h. The cells were then serum starved for 6 h and were either left unstimulated or stimulated with TNF-α (50 ng/mL) for 15 min. Cell lysates were analyzed for phosphorylated ERK or total ERK by immunoblot. […] Cell lysates were analyzed for phosphorylated ERK or total ERK by immunoblot. […]
To gain insight into the time kinetics of TNF-α induced ERK phosphorylation, HeLa cells were treated with TNF-α (50 ng/mL) for different time periods. […] Down-modulation of IG20 transcripts upon treatment with different ShRNA expressing lentiviruses was monitored by RT-PCR. […]

Akt = Akt (Homo sapiens, UniProt P31749); assay: Phosphorylation of MADD in vitro by Akt (kinase assay); format: biochemical; conditions: GST-tagged recombinant MADD, rAkt, 1 h at 30° C.
Sequence of Akt (P31749 whole entry): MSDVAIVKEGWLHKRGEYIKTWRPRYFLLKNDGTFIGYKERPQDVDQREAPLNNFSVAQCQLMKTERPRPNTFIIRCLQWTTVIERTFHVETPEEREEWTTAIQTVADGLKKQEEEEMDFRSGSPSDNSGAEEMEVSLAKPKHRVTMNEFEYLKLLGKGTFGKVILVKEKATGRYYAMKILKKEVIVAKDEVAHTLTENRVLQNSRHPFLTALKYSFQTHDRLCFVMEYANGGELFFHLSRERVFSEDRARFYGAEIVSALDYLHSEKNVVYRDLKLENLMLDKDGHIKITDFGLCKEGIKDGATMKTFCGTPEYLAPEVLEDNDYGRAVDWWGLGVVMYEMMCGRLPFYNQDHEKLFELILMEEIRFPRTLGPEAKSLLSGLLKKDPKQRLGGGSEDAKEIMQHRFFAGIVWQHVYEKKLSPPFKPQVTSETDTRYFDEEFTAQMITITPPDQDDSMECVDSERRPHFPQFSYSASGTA
Experimental: (A) In vitro phosphorylation of rMADD by Akt. GST-wtMADD or -MADD mutants were expressed in bacteria, purified, and then incubated with rAkt and γ[^32P] ATP. After 1 h incubation at 30° C., the products were resolved on SDS-PAGE and ^32P-labeled proteins were visualized by autoradiography. (B) MADD is labeled by [^32P]orthophosphate in vivo. HEK293 cells were transfected with wtMADD or MADD mutant constructs. Twenty-four hours after transfection cells were incubated with 0.3 mCi/ml [32P]orthophosphate for 6 h. MADD was immunoprecipitated with an anti-YFP antibody. The precipitated MADD was separated by SDS-PAGE, transferred to a nitrocellulose membrane, and subjected to autoradiography. Loaded MADD was visualized by staining the same membrane with an anti-YFP antibody. (C) HEK293 cells were transfected with cDNAs for wtMADD or MADD mutants and. 36 h later the cells were harvested for immunoblotting using the anti-phospho-S-70, -T-173 or -T-1041 antibodies. An anti-YFP antibody was used to detect exogenous MADD. (D) HEK293 cells were transfected with wtMADD and 24 hours later cells were serum starved for 20 h. Subsequently, they were treated with LY (10 μM) for 1 h and/or IGF-1 (150 ng/ml) for 20 minutes. The cell lysates were immunoblotted and probed with anti phospho-specific antibodies or an anti-YFP antibody. (E) HEK293 cells were co-transfected with wtMADD along with dominant negative Akt (DN-Akt) or the empty vector pcDNA3.1 (pcDNA). Immunoblots were probed with the anti phospho-specific antibodies or an anti-YFP antibody. (F) HeLa cells were serum starved for 20 h, treated with LY (10 μM) for 1 h, IGF-1 (150 ng/ml) for 20 minutes. Immunoblot was probed with the anti phospho-specific antibodies or an anti-MADD antibody.
To test whether MADD is a substrate of Akt, an in vitro assay was employed to test whether Akt could directly phosphorylate MADD. […] It was tested whether MADD could be phosphorylated in vivo. […] Second, three antibodies that specifically reacted with phosphorylated S70 (anti-phospho S70), T173 (anti-phospho T173) or T1041 (anti-phospho T1041) were raised, respectively. The phosphopeptides, CRQRRMpSLRDDTS (SEQ ID NO: 7) (S-70), GSRSRNSpTLTSL (SEQ ID NO: 8) (T-173), and KRKRSPpTESVNTP (SEQ ID NO: 9) (T-1041) were used to immunize the rabbits. Antisera were depleted of antibodies that recognize non-phosphorylated MADD by negatively selecting the antibodies using an identical non-phosphorylated peptide affinity column. Antibodies in the flow through were tested to ensure that they specifically bind only to the corresponding phosphorylated peptide and not the non-phosphorylated couterpart. […]

HEK293 cells = assay: Cell death of HEK293 cells transfected with MADD constructs, Trypan Blue exclusion; format: cell-based; conditions: HEK293, 48 h after transfection
Experimental: (A) HEK293 cells were transfected with various MADD constructs. Cell death was determined 48 h after transfection by Trypan Blue exclusion. *p<0.05 vs control. (B) Apoptosis analyzed by Cell Death Detection ELISA. *p<0.05 vs control. (C) Phosphorylatable but not the nonphosphorylatable MADD could rescue cell death upon endogenous MADD knockdown. HeLa cells were infected with the lentivirus harboring MADD shRNAi (RNAi) or its scrambled form (Scrambled RNAi). 24 h after infection, cells were transfected with the constructs of wtMADD-R or MADD3A-R. 48 h after transfection, cell death was determined by Trypan Blue exclusion. *p<0.05 vs RNAi alone. (D) Inhibition of Akt or PI3K could abolish the ability of wtMADD-R to rescue cell death upon endogenous MADD knockdown. HeLa cells were infected with the lentivirus harboring MADD shRNA (RNAi). 24 h after infection, cells were infected with the adenovirus harboring DN-Akt, and transfected with wtMADD-R. LY (10 μM) was added 6 h after transfection. 48 h after transfection, cell death was determined by Trypan Blue exclusion. Data are expressed as the mean±SEM of three independent experiments.
To see whether phosphorylation is required for the prosurvival function of MADD, WT and mutant MADD were tested. […] Since knockdown of endogenous MADD can cause cell death, it was tested whether the wtMADD or MADD3A could rescue this cell death. Only the shRNA resistant wtMADD (wtMADD-R) and not the MADD3A-R could rescue cell death upon endogenous MADD knockdown (FIG. 14C), which was abrogated in the presence either LY or DN-Akt (FIG. 14D). Taken together, the prosurvival function of MADD is dependent upon its phosphorylation by Akt.
Cell culture and viability assay. HEK293, HeLa and PA-1 cells were cultured. Cell death was determined by Trypan Blue exclusion and the numbers of Trypan Blue-positive and -negative cells were counted using a haemocytometer.

DR4 = assay: Association of exogenous MADD with DR4 in HEK293 cells (immunoprecipitation); format: cell-based
Experimental: (A) Phosphorylation status of MADD could influence its binding to DR4. HEK293 cells were transfected with wtMADD or MADD mutants. 36 h after transfection, the cells were harvested for immunoprecipitation using an anti-DR4 antibody followed by immunoblotting using an anti-YFP antibody to detect exogenous MADD. The membrane was reprobed with an anti-DR4 antibody to show the protein loading. (B) PI3K can influence the association of exogenous MADD with DR4. HEK293 cells were transfected with wtMADD. Twenty four hours after transfection, the cells were serum starved for 20 h. Further, they were treated with LY (10 μM) for 1 h, IGF-1 (150 ng/ml) for 20 minutes. Immunoprecipitation using an anti-DR4 antibody was followed by immunoblotting using anti-YFP or anti-DR4 antibody. (C) Akt can influence exogenous MADD association with DR4. HEK293 cells were co-transfected with wtMADD along with DN-Akt or the empty vector pcDNA3.1 (pcDNA). Thirty six hours after transfection, the cells were harvested for immunoprecipitation using anti-DR4 antibody followed by immunoblotting with an anti-YFP or an anti-DR4 antibody. (D) PI3K can influence the association of endogenous MADD with DR4. HeLa cells were serum starved for 20 h, then treated with LY (10 μM) for 1 h, IGF-1 (150 ng/ml) for 20 minutes. Immunoprecipitation using an anti-DR4 antibody was followed by immunoblotting with an anti-MADD or an anti-DR4 antibody. (E) Akt can influence the association of endogenous MADD with DR4. HeLa cells were transfected with DN-Akt or pcDNA. Thirty six hours after transfection, the cells were collected for immunoprecipitation using an anti-DR4 antibody followed by immunoblotting with an anti-MADD antibody.
MADD can bind to DR4 and thereby block the activation of the extrinsic apoptotic pathway. […] Stimulation of PI3K by IGF-1 increased, while inhibition by LY reduced, the association between wtMADD and DR4 (FIG. 15B). […] This interaction was reduced in the presence of LY (FIG. 15D) or DN-Akt (FIG. 15E).
Immunoprecipitation. Immunoprecipitations were performed using standard procedures. The samples were precleared with 10% (vol/vol) Protein-A agarose (Roche) for 1 h on a rocking platform. Specific antibodies were added and rocked for 1 h. Immunoprecipitates were captured by incubating with 10% (vol/vol) Protein-A agarose for an hour. The agarose beads were spun down and washed three times with NET/NP40 buffer (150 mM NaCl, 2 mM EDTA, 50 mM Tris-HCl pH 7.5, 0.1% NP-40). The antigens were released and denatured by adding SDS sample buffer. Immunoblots were prepared and analysed as described above.

Substance	In vitro phosphorylation by Akt (Akt)	Time of maximum ERK phosphorylation (ERK1/2)	Cell death upon enforced expression (HEK293 cells)	Association of exogenous MADD with DR4 (DR4)
TNF-α [reference compound]		15 min		
wtMADD: recombinant wild-type MADD	phosphorylated by Akt		could not induce cell death	can associate with DR4
MADD3A: MADD mutant, all three residues (S70, T173, T1041) converted to alanine			significant cell death	almost non-existant
MADD173A: MADD mutant T173A	reduced or absent		minimal effects on cell death	

More lines, main results first:

In vitro phosphorylation by Akt (Akt)	Substance	Time of maximum ERK phosphorylation (ERK1/2)	Cell death upon enforced expression (HEK293 cells)	Association of exogenous MADD with DR4 (DR4)
reduced or absent	MADD70A: MADD mutant S70A		minimal effects on cell death	
reduced or absent	MADD1041A: MADD mutant T1041A		minimal effects on cell death	
